Measured values published in ChEMBL document CHEMBL1153659, “Target directed enediyne prodrugs: hER and AhR degradation by a synthetic oxo-enediyne” (1996).

Tested on: T47D
Test: Compound was tested for growth inhibition against T-47D-Y cells at 10e-4 M
Assay type: functional
Settings: Homo sapiens

SMILES: C1#CCO[C@H]2CCCC[C@@H]2C#C/C=C\1
- inhibition at 100 µM: 83%
